Experiments:
C5a receptor = target: T1, C5a receptor (Homo sapiens, UniProt P21730); experiment: C5a receptor binding assay ([125I]-human C5a, human peripheral blood neutrophil); conditions: [125I]-C5a 200 pM, 4° C. for 2 hr, read-out: IC50 value, inhibition of [125I]-human C5a binding
T1 construct: neutrophil fraction was separated from human peripheral intravenous blood; endogenous in cells; host or cells: human peripheral blood neutrophils (whole cells)
T1 sequence (P21730 1-350): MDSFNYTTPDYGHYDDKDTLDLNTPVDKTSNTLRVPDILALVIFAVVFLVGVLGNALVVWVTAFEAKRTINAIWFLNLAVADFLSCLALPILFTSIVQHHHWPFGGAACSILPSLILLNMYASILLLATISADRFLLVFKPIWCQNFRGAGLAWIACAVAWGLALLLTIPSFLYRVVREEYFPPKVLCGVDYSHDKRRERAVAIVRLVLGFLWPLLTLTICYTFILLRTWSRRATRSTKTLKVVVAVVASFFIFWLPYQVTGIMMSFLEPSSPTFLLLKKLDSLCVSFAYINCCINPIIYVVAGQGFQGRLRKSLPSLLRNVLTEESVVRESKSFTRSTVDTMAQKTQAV
Description: The C5a receptor binding inhibitory action of C5a and the test compound was evaluated by a receptor binding assay comprising of human peripheral blood neutrophil, which expresses the C5a receptor, and [^125I]-human C5a (Amersham Pharmacia Biotech) in a MultiScreen (MILLIPORE). First, neutrophil fraction was separated from human peripheral intravenous blood using lympholyte-poly (Cedarlane), and suspended in a Binding buffer [50 mM HEPES, 1 mM CaCl2, 5 mM MgCl2, 0.5% bovine albumin (BSA, SIGMA), 0.02% NaN3 (pH 7.2)]. The binding assay was started by the addition of 1×10^5 cells/50 μL neutrophil suspension, 25 μL of a test compound solution (obtained by dissolving the test compound in N,N-dimethylformamide to a final concentration of 10 mmol/L and diluting with binding buffer), and 25 μL of [^125I]-C5a solution (final concentration 200 pM), to each well of the MultiScreen. […] After drying the MultiScreen, the radioactivity on the filter was measured using a gamma counter.
The rate of inhibition (% inhibition) of C5a binding by the test compound was calculated by the following formula using the count value obtained without addition of the test compound as Total, the count value obtained with addition of non-labeled C5a as Non, and the count value obtained with addition of the test compound as Test. […]

[1] = Dissolution test (JP Dissolution Test Method 2, paddle method); type: physicochemical; conditions: JP second fluid 900 ml, paddle 50 rpm, 37° C., about 10 mg based on free form
Description: The compounds obtained in Examples 22, 24 and 25, free base•Form-I crystal, and the racemate of the compound of Example 3 were subjected to a dissolution test, and the dissolution rate was compared. According to this test method, the amount of dissolution relative to the content of each compound in the test solution is expressed in the dissolution rate (%), which was measured over time.
For the method of adding each compound, the compound (about 10 mg based on free form) was precisely weighed and directly added to a vessel. As the test solution, The Japanese Pharmacopoeia second fluid (900 ml) was used, and the test was performed according to The Japanese Pharmacopoeia Dissolution Test Method 2 (Paddle Method) at 50 rpm. The test temperature was 37° C. After the start of the test, solution for dissolution (10 ml) was taken at suitable times, and a test solution (10 ml) heated to 37° C. was soon carefully added for compensation. The collected solution for dissolution was passed through a filter (DISMIC 13HP PTFE (0.45 μm); Toyo Roshi Kaisha). The filtrate in the early stage (5 ml) was removed, the subsequent filtrate (500 μl) was precisely measured, and the dilution solution (water/acetonitrile/trifluoroacetic acid mixture=500:500:1, 500 μl) was accurately added to give a sample solution.
Separately, about 10 mg of the free base•Form-I crystal was precisely weighed, and a dilution solution (water/acetonitrile/trifluoroacetic acid mixture=500:500:1) was added to 50 ml sharp. This solution (2.5 ml) was precisely measured, and a dilution solution (water/acetonitrile/trifluoroacetic acid mixture=500:500:1) was added to 50 ml sharp. This was used as the standard solution of free base•Form-I crystal (10 μg/ml). The sample solution and the standard solution were measured under the HPLC conditions shown below, the peak areas AT and AS of the free base•Form-I crystal in each solution were measured, and the dissolution rate was determined by the following formula.
The nth dissolution rate (%) of free base•Form-I crystal=Wn/W100%×100 • W1: the first dissolution amount (mg) of free base•Form-I crystal
=(900×AT1)×WS/AS/1000 • Wn: the nth (n>1) dissolution amount (mg) of free base•Form-I crystal
={900×ATn+10×(AT1+AT2 . . . +ATn−1)}×WS/AS/1000 • W100%: cast amount (mg) of drug substance • Ws: collected amount (mg) of free base•Form-I crystal standard product • As: peak area of free base•Form-I crystal in standard solution • AT1: peak area of free base•Form-I crystal in sample solution by the first sampling • ATn: peak area of free base•Form-I crystal in sample solution by the nth sampling. • For racemate, the dissolution rate was calculated based on the total value of S form and R form. […]

Compound: CCn1cc(CN(C(=O)C2CCCc3c(O)cccc32)c2ccc(C(C)C)nc2)cn1 (racemic) [racemate of the compound of Example 3, N-[(1-ethyl-1H-pyrazol-4-yl)methyl]-5-hydroxy-N-(6-isopropylpyridin-3-yl)-1,2,3,4-tetrahydronaphthalene-1-carboxamide, reference compound]
- IC50 (C5a receptor): 23 nM
- dissolution rate (comparison) [1]: slowest
